ChEMBL document CHEMBL3826915, “Design and comparative anticonvulsant activity assessment of CNS-active alkyl-carbamoyl imidazole derivatives” (Bioorg Med Chem, 2016)

What was measured:
[1] = Half life in human; type: ADME, organism-based; conditions: in vivo
[2] = Clearance in human; type: ADME, organism-based; conditions: in vivo
[3] = Volume of distribution in human; type: ADME, organism-based; conditions: in vivo
Mus musculus [4] = assay: Anticonvulsant activity in ip dosed albino CF1 mouse assessed as protection against 6 Hz current-induced seizures by psychomotor test; type: functional
Mus musculus [5] = assay: Anticonvulsant activity in ip dosed albino CF1 mouse assessed as protection against subcutaneous metrazol-induced seizures by measuring time to peak effect; type: functional
Mus musculus [6] = assay: Anticonvulsant activity in ip dosed albino CF1 mouse assessed as protection against 6 Hz current-induced seizure by measuring time to peak effect; type: functional
[7] = Protective index, ratio of TD50 for neurotoxicity in ip dosed albino CF1 mouse to ED50 for anticonvulsant activity in ip dosed […] metrazol-induced seizure albino CF1 mouse model; type: toxicity, organism-based; conditions: in vivo, read-out: Ratio TD50/ED50
[8] = Neurotoxicity in ip dosed albino CF1 mouse assessed as motor impairment by rotorod test; type: toxicity, organism-based; conditions: in vivo
[9] = Protective index, ratio of TD50 for neurotoxicity in ip dosed albino CF1 mouse to ED50 for anticonvulsant activity in ip dosed 6 Hz current-induced seizure albino CF1 mouse model; conditions: in vivo
Mus musculus [10] = assay: Anticonvulsant activity in ip dosed albino CF1 mouse assessed as protection against maximal electroshock-induced seizures by measuring time to peak effect; type: functional
Mus musculus [11] = assay: Anticonvulsant activity in ip dosed AGS-susceptible frings albino CF1 mouse assessed as protection against sound-induced seizures; type: functional
[12] = Protective index, ratio of TD50 for neurotoxicity in ip dosed albino CF1 mouse to ED50 for protection against sound-induced seizures in ip dosed AGS-susceptible frings albino CF1 mouse; type: toxicity, organism-based; conditions: CF1 (ED50 arm: AGS-susceptible Frings), in vivo, read-out: Ratio TD50/ED50
Mus musculus [13] = assay: Anticonvulsant activity in ip dosed albino CF1 mouse assessed as protection against subcutaneous metrazol-induced seizures; type: functional

half-life [1] | clearance [2] | Vd [3] | Structure (SMILES) | ED50 (Mus musculus [4]) | Time (Mus musculus [5]) | Time (Mus musculus [6]) | selectivity ratio [7] | TD50 [8] | selectivity ratio [9] | Time (Mus musculus [10]) | ED50 (Mus musculus [11]) | selectivity ratio [12] | ED50 (Mus musculus [13])
5 h | 5 mL/min/kg | 3 L/kg | OC(Cn1ccnc1)c1ccc(CCc2ccccc2)cc1 (stereo not drawn) [DENZIMOL] | – | – | – | – | – | – | – | – | – | –
– | – | – | CCCC(C(N)=O)C(C)CC (stereo not drawn) | 27 mg/kg | 0.5 h | 0.5 h | 2.3 | 48 mg/kg | 1.8 | 0.5 h | 20 mg/kg | 2.4 | 21 mg/kg
